Assay results from ChEMBL document CHEMBL1141652 (J Med Chem, 2008).

How the values were obtained:
[1] = target: Disintegrin and metalloproteinase domain-containing protein 17 (Homo sapiens, UniProt P78536)
Description: Inhibition of human recombinant TACE

[2] = Selectivity for human recombinant TACE over MMP2
[3] = Selectivity for human recombinant TACE over MMP7
[4] = Selectivity for human recombinant TACE over ADAM10
[5] = Selectivity for human recombinant TACE over BMP1
[6] = Selectivity for human recombinant TACE over MMP3
[7] = Selectivity for human recombinant TACE over MMP1
[8] = Selectivity for human recombinant TACE over MMP14

Sequence of Disintegrin and metalloproteinase domain-containing protein 17 (P78536 whole entry, the tested form may be a part): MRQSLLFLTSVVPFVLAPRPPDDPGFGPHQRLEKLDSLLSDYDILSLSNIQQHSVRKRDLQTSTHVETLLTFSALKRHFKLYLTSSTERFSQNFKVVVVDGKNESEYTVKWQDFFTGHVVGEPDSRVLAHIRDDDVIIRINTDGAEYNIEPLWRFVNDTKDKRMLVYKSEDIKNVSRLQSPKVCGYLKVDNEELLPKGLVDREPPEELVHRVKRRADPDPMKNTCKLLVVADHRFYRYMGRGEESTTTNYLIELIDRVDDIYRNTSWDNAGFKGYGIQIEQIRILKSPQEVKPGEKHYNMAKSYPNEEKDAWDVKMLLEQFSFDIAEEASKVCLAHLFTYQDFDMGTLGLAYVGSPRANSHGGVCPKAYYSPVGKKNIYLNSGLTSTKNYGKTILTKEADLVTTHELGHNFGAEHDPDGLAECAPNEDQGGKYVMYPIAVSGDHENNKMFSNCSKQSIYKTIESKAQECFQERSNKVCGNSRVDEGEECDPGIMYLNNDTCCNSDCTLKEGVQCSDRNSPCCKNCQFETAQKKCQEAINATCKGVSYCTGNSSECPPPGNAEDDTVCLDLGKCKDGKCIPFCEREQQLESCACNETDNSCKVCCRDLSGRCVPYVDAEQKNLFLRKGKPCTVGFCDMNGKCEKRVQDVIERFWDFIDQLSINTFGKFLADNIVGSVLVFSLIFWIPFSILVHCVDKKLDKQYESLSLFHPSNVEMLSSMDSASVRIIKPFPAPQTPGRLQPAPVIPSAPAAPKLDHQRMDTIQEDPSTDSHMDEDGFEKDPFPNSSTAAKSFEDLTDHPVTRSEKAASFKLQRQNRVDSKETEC

Compound | Ki [1] [nM] | also measured
COC(=O)[C@]1(c2cccc(OCCc3ccccc3)c2)C[C@H]1C(=O)NO | 290 | –
CCOC(=O)C1(c2ccc(OCc3ccccc3)cc2)CC1C(=O)NO (racemic) | 20000 | –
COC(=O)[C@]1(c2cccc(OCCc3cccc4ccccc34)c2)C[C@H]1C(=O)NO | 50 | –
Cc1cc(COc2cccc([C@@]3(C(=O)Nc4ccccc4)C[C@H]3C(=O)NO)c2)c2ccccc2n1 | 11 | –
Cc1cc(COc2cccc([C@@]3(C(=O)N4CCN(C)CC4)C[C@H]3C(=O)NO)c2)c2ccccc2n1 | 5000 | –
Cc1cc(COc2cccc([C@@]3(C(=O)N(C)Cc4ccccc4)C[C@H]3C(=O)NO)c2)c2ccccc2n1 | 3000 | –
COC(=O)[C@]1(c2cccc(Oc3ccc(C)cc3)c2)C[C@H]1C(=O)NO | 140 | –
Cc1cc(COc2cccc([C@@]3(C(=O)NCc4ccccc4)C[C@H]3C(=O)NO)c2)c2ccccc2n1 | 140 | –
CC#CCOc1ccc(C[C@]2(C(N)=O)C[C@@H]2C(=O)NO)cc1 | 80 | –
COC(=O)[C@]1(c2cccc(OCCc3ccc4ccccc4c3)c2)C[C@H]1C(=O)NO | 60 | –
COC(=O)[C@@]1(Cc2ccc(OCC3CCCCC3)cc2)C[C@@H]1C(=O)NO | 26000 | –
COC(=O)[C@@]1(Cc2ccc(OCc3ccc(Cl)c(Cl)c3)cc2)C[C@@H]1C(=O)NO | 130 | –
COC(=O)[C@]1(c2cccc(OC)c2)C[C@H]1C(=O)NO | 3000 | –
COC(=O)[C@@]1(Cc2ccc(OCCc3ccc4ccccc4c3)cc2)C[C@@H]1C(=O)NO | > 100000 | –
COC(=O)[C@@]1(Cc2ccc(OCCc3cccc4ccccc34)cc2)C[C@@H]1C(=O)NO | > 100000 | –
COC(=O)C1(Cc2cccc(OCc3ccccc3)c2)CC1C(=O)NO (racemic) | 4000 | –
COC(=O)[C@]1(c2cccc(Oc3ccc4ccccc4c3)c2)C[C@H]1C(=O)NO | 70 | –
CCOC(=O)[C@@]1(Cc2ccc(Oc3ccccc3)cc2)C[C@@H]1C(=O)NO | 3100 | –

The next lines start with results.

Ki [1] [nM] | Compound | also measured
700 | Cc1cc(COc2cccc([C@@]3(C(N)=O)C[C@H]3C(=O)NO)c2)c2ccccc2n1 (relative stereo) | –
2700 | Cc1cc(COc2cccc([C@@]3(C(=O)N(C)C)C[C@H]3C(=O)NO)c2)c2ccccc2n1 | –
3000 | COC(=O)[C@]1(c2cccc(OCc3ccc4ccccc4c3)c2)C[C@H]1C(=O)NO | –
100 | CNC(=O)[C@]1(c2cccc(OCc3cc(C)nc4ccccc34)c2)C[C@H]1C(=O)NO | –
110 | COC(=O)[C@]1(c2cccc(OCc3cccc(OC)c3)c2)C[C@H]1C(=O)NO | –
1 | Cc1cc(COc2ccc(C[C@]3(C(=O)N(C)C)C[C@@H]3C(=O)NO)cc2)c2ccccc2n1 | –
1600 | CC#CCOc1cccc([C@@]2(C(=O)OC)C[C@H]2C(=O)NO)c1 | –
240 | COC(=O)[C@]1(c2cccc(Oc3ccccc3C)c2)C[C@H]1C(=O)NO | –
14 | CNC(=O)[C@@]1(Cc2ccc(OCc3cc(C)nc4ccccc34)cc2)C[C@@H]1C(=O)NO | –
800 | COC(=O)C1(Cc2ccc(OCc3ccccc3)cc2)CC1C(=O)NO (racemic) | –
16 | CCOC(=O)[C@]1(c2cccc(OCc3cc(C)nc4ccccc34)c2)C[C@H]1C(=O)NO | –
70 | COC(=O)[C@]1(c2cccc(OCc3cccc(C(F)(F)F)c3)c2)C[C@H]1C(=O)NO | –
9 | Cc1cc(COc2cccc([C@@]3(C(=O)NC4CCCCC4)C[C@H]3C(=O)NO)c2)c2ccccc2n1 | –
50 | COC(=O)[C@]1(c2cccc(OCc3ccc(Cl)cc3)c2)C[C@H]1C(=O)NO | –
420 | CC#CCOc1ccc(C[C@]2(C(=O)OC)C[C@@H]2C(=O)NO)cc1 | –
900 | COC(=O)[C@]1(c2cccc(OCC3CCCCC3)c2)C[C@H]1C(=O)NO | –
8 | Cc1cc(COc2cccc([C@@]3(C(=O)OC(C)C)C[C@H]3C(=O)NO)c2)c2ccccc2n1 | Ratio Ki [2]: 1400; Ratio Ki [3]: 12400; Ratio Ki [4]: 4; Ratio Ki [5]: 800; Ratio Ki [6]: 1500; Ratio Ki [7]: 7400; Ratio Ki [8]: 3000
800 | COC(=O)[C@@]1(Cc2ccc(OCc3ccccc3)cc2)C[C@@H]1C(=O)NO (racemic) | –
260 | COC(=O)[C@@]1(Cc2ccc(OCc3ccccc3Cl)cc2)C[C@@H]1C(=O)NO | –
1100 | COC(=O)[C@]1(c2cccc(Oc3ccccc3)c2)C[C@H]1C(=O)NO | –
360 | NC(=O)C1(Cc2ccc(OCc3ccccc3)cc2)CC1C(=O)NO (racemic) | –
500 | COC(=O)C1(c2cccc(OCc3ccccc3)c2)CC1C(=O)NO (racemic) | –
11 | COC(=O)[C@]1(c2cccc(OCc3ccc(Cl)c(Cl)c3)c2)C[C@H]1C(=O)NO | Ratio Ki [2]: 2800; Ratio Ki [3]: 5400; Ratio Ki [4]: 10; Ratio Ki [5]: 400; Ratio Ki [6]: 600; Ratio Ki [7]: 6800; Ratio Ki [8]: 2400
18 | COC(=O)[C@]1(c2cccc(OCc3ccc(C(F)(F)F)cc3)c2)C[C@H]1C(=O)NO | Ratio Ki [2]: > 600; Ratio Ki [3]: > 600; Ratio Ki [4]: 8; Ratio Ki [5]: 700; Ratio Ki [6]: 200; Ratio Ki [7]: 1800; Ratio Ki [8]: 4000
80 | COC(=O)[C@]1(c2cccc(OCc3cccc(F)c3)c2)C[C@H]1C(=O)NO | –
1200 | NC(=O)C1(c2cccc(OCc3ccccc3)c2)CC1C(=O)NO (stereo not given) | –
